Assay results published in BindingDB's records for doi:10.1016/j.bmc.2011.01.024 (University of Rome Tor Vergata, 2011).

Assay: Inhibition of HIV1 3B reverse transcriptase activity infected in human H9 cells assessed as level of p24 antigen

- IC50: 4.48 nM
Structure (SMILES): CC1(C)O[C@H]2CC(=O)OC[C@]23[C@H]2CC[C@@]4(C)[C@H](c5ccoc5)OC(=O)[C@H]5O[C@]54[C@]2(C)C(=O)C[C@@H]13 [Limonin]
